From patent publication US6500853B1, “Inhibitors of phospholipase enzymes” (Genetics Institute, LLC, priority 1998, dated 2002) come the findings set out here.

In one assay the target is T1, cPLA2 (Homo sapiens, UniProt P47712).
T1 sequence (P47712 1-749): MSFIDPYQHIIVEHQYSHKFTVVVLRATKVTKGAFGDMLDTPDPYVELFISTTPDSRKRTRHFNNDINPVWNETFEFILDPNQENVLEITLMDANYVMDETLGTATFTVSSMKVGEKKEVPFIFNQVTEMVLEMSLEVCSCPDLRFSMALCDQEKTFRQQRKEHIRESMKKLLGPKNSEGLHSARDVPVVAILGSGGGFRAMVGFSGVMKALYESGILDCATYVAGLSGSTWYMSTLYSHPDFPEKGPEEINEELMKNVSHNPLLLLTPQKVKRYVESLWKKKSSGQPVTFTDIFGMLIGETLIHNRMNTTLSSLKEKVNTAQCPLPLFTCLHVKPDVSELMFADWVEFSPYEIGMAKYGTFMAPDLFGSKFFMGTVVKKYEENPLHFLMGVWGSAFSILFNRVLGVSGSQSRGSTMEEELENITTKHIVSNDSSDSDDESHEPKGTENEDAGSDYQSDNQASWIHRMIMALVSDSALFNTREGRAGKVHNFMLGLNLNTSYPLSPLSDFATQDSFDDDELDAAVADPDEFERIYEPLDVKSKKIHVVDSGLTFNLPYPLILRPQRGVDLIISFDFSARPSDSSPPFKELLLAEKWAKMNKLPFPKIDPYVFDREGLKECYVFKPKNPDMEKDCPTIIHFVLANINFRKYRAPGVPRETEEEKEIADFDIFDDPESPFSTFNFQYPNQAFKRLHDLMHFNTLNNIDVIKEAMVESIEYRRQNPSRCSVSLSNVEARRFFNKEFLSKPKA
The assay can be described thus: Coumarin Assay (cPLA2 inhibition). Type of assay: biochemical. In short, it runs like this:
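Percent inhibition at the stated concentration, from the rate of 460 nm emission rise (360 nm excitation) per minute. Reaction started by adding 4 μg enzyme to compound and 60 μM 7-hydroxycoumarinyl 6-heptenoate in Hepes buffer pH 7.5 with 1 mM EDTA.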

Assay [1] has as its system Rat Carrageenan-Induced Footpad Edema. The assay can be described thus: Rat Carrageenan-Induced Footpad Edema Test. Format: in vivo, male Sprague Dawley rats. The conditions noted are these: footpad volume 3 hours after carrageenan. For orientation: In the carrageenan paw model, swelling and tenderness develop within hours.
Where [2] appears, read: Rattus norvegicus, iv, 3 h, IV, 5 mg/Kg, read-out: PERCENT INHIBITION

Several values for one entry are separate records, joined by “and”; a condition that tells them apart may be missing. Equal entries are not always repeated. Where two headings read alike, the source gives them in different places.

As usually defined, the inhibition is the percentage by which the read-out fell short of the control. Take `O=C(O)c1cccc(NCc2cn(C(c3ccccc3)c3ccccc3)c3ccc(NC(=O)C4CCCC4)cc23)c1` [Example 65, 3-[({1-benzhydryl-5-[(cyclopentylcarbonyl)amino]-1H-indol-3-yl}methyl)amino]benzoic acid]: the inhibition at 50 µM on cPLA2 (CONCENTRATION 50 micromolar, read-out: PERCENT INHIBITION @) was 47%. For the same molecule, on cPLA2 (CONCENTRATION 72 micromolar, read-out: PERCENT INHIBITION @), the inhibition at 72 µM is 50%. Moreover, the inhibition at 80 µM on cPLA2 (CONCENTRATION 80 micromolar, read-out: PERCENT INHIBITION @) was 50%. Further, the inhibition in vivo at 5 mg/kg in assay [1] (setting [2]) was 2.84%.

For the molecule `O=C(Nc1cccc(C(=O)O)c1)C(=O)c1cn(Cc2ccc(Cc3ccccc3)cc2)c2ccccc12` [Example 59, 3-({2-[1-(4-benzylbenzyl)-1H-indol-3-yl]-2-oxoacetyl}amino)benzoic acid], at cPLA2 (CONCENTRATION 6 micromolar, read-out: PERCENT INHIBITION @), the inhibition at 6 µM was determined as 50%. For the same molecule, the inhibition at 12.5 µM on cPLA2 (CONCENTRATION 12.5 micromolar, read-out: PERCENT INHIBITION @) worked out at 90%. Further, the inhibition in vivo at 5 mg/kg in assay [1] (setting [2]) stood at 2.9%.

Regarding `COc1cc(C(=O)O)ccc1Cc1cn(C(c2ccccc2)c2ccccc2)c2ccc(NC(=O)OC3CCCC3)cc12` [Example 3, 4-[(1-benzhydryl-5-{[(cyclopentyloxy)carbonyl]amino}1H-indol-3-yl)methyl]-3-methoxybenzoic acid], the inhibition at 5 µM at cPLA2 (CONCENTRATION 5 micromolar, read-out: PERCENT INHIBITION @) was determined as 50%. Moreover, the inhibition at 6.25 µM at cPLA2 (CONCENTRATION 6.25 micromolar, read-out: PERCENT INHIBITION @) came to 51%. Moreover, at cPLA2 (CONCENTRATION 6.4 micromolar, read-out: PERCENT INHIBITION @), the inhibition at 6.4 µM was determined as 50%. Moreover, the inhibition at 10 µM at cPLA2 (CONCENTRATION 10 micromolar, read-out: PERCENT INHIBITION @) is 41%. The inhibition at 17.5 µM at cPLA2 (CONCENTRATION 17.5 micromolar, read-out: PERCENT INHIBITION @) came to 50%. Further, the inhibition at 19 µM at cPLA2 (CONCENTRATION 19 micromolar, read-out: PERCENT INHIBITION @) came to 50%. Moreover, on cPLA2 (CONCENTRATION 20 micromolar), the “PERCENT INHIBITION @” value was 38% and 43% and 44%. Also, on cPLA2 (CONCENTRATION 20 micromolar, read-out: PERCENT INHIBITION @), the inhibition at 20 µM was determined as 37%. Besides, the inhibition at 22 µM on cPLA2 (CONCENTRATION 22 micromolar, read-out: PERCENT INHIBITION @) stood at 50%. For the same molecule, the inhibition at 23 µM at cPLA2 (CONCENTRATION 23 micromolar, read-out: PERCENT INHIBITION @) is 50%. Moreover, the inhibition at 23.5 µM at cPLA2 (CONCENTRATION 23.5 micromolar, read-out: PERCENT INHIBITION @) is 50%. The inhibition at 24 µM on cPLA2 (CONCENTRATION 24 micromolar, read-out: PERCENT INHIBITION @) is 50%. Further, the inhibition at 100 µM at cPLA2 (CONCENTRATION 100 micromolar, read-out: PERCENT INHIBITION @) was determined as 39%. For the same molecule, the inhibition in vivo at 5 mg/kg in assay [1] (Rattus norvegicus, po, 3 h, PO, 5 mg/Kg, read-out: PERCENT INHIBITION) amounted to 21.5%. Besides, in assay [1] (Rattus norvegicus, po, 3 h, PO-, 20 mg/Kg, read-out: PERCENT INHIBITION), the inhibition in vivo at 20 mg/kg amounted to 19.6%.

For the molecule `COc1cc(C(=O)NS(=O)(=O)c2cccc3c(N(C)C)cccc23)ccc1Cc1cn(C(c2ccccc2)c2ccccc2)c2ccc(NC(=O)OC3CCCC3)cc12` [Example 30], the “PERCENT INHIBITION @” value came to 50% at cPLA2 (CONCENTRATION 8 micromolar), 46% on cPLA2 (CONCENTRATION 20 micromolar), 50% on cPLA2 (CONCENTRATION 21 micromolar) and 50% on cPLA2 (CONCENTRATION 24 micromolar). Besides, the “PERCENT INHIBITION” value is on record as 13.89% in assay [1] (IV, 5 mg/Kg); −0.11% in assay [1] (PO, 2 mg/Kg); 13.25% in assay [1] (PO, 10 mg/Kg).

`CCCn1cc(Cc2ccc(C(=O)NS(=O)(=O)c3ccccc3C)cc2OC)c2cc(NC(=O)OC3CCCC3)ccc21` [Example 2, Cyclopentyl N-{3-[2-methoxy-4-({[(2-methylphenyl)sulfonyl]amino}carbonyl)benzyl]-1-propyl-1H-indol-5-yl}carbamate]: in assay [1] (setting [2]), the inhibition in vivo at 5 mg/kg was determined as 15.9%.

Regarding `CS(=O)(=O)Cc1c(CCOc2ccc(C(=O)O)cc2)c2cc(Cl)ccc2n1C(c1ccccc1)c1ccccc1` [Example 154, 4-(2-{1-benzhydryl-5-chloro-2-[(methylsulfonyl)methyl]-1H-indol-3-yl}ethoxy)benzoic acid], the inhibition at 5.5 µM on cPLA2 (Conc 5.5 uM, read-out: % Inhibition) was 50%.

For `O=C(O)CCc1ccc(OCCc2c(COCc3ccc(F)cc3)n(C(c3ccccc3)c3ccccc3)c3ccc(Cl)cc23)cc1` [Example 165, 3-{4-[2-(1-benzhydryl-5-chloro-2-{[(4-fluorobenzyl)oxy]methyl}-1H-indol-3-yl)ethoxy]phenyl}propanoic acid], the inhibition at 0.8 µM on cPLA2 (Conc 0.8 uM, read-out: % Inhibition) amounted to 50%.

For `O=C(O)Cc1cn(CC2CC2)c2ccc(-c3cccc(C(F)(F)F)c3)cc12` [Example 79, 2-{1-(cyclopropylmethyl)-5-[3-(trifluoromethyl)phenyl]-1H-indol-3-yl}acetic acid], the inhibition at 60 µM at cPLA2 (CONCENTRATION 60 micromolar, read-out: PERCENT INHIBITION @) came to 50%. Further, the inhibition at 65 µM at cPLA2 (CONCENTRATION 65 micromolar, read-out: PERCENT INHIBITION @) came to 50%.

For the molecule `O=C(O)c1ccc(OCCc2c(COCc3c(F)cccc3F)n(C(c3ccccc3)c3ccccc3)c3ccc(Cl)cc23)cc1` [Example 156, 4-[2-(1-benzhydryl-5-chloro-2-{[(2,6-difluorobenzyl)oxy]methyl}-1H-indol-3-yl)ethoxy]benzoic acid], the inhibition at 1 µM at cPLA2 (Conc 1 uM, read-out: % Inhibition) amounted to 50%.

Take `O=C(O)CCc1cn(CCCOc2cccc(Cc3ccccc3)c2)c2ccccc12` [Example 83, 3-{1-[3-(3-benzylphenoxy)propyl]-1H-indol-3-yl}propanoic acid]: the inhibition at 48 µM on cPLA2 (CONCENTRATION 48 micromolar, read-out: PERCENT INHIBITION @) was found to be 50%. In addition, the inhibition at 70 µM at cPLA2 (CONCENTRATION 70 micromolar, read-out: PERCENT INHIBITION @) was 50%.

`Cc1c(CCS(=O)(=O)c2ccc(C(=O)O)cc2)c2ccc(Cl)cc2n1C(c1ccccc1)c1ccccc1` [Example 140, 4-{[2-(1-benzhydryl-6-chloro-2-methyl-1H-indol-3-yl)ethyl]sulfonyl}benzoic acid]: at cPLA2 (Conc 2.5 uM, read-out: % Inhibition), the inhibition at 2.5 µM was found to be 50%.

On to `Cc1c(CCS(=O)(=O)c2ccc(C(=O)O)cc2)c2ccccc2n1C(c1ccccc1)c1ccccc1` [Example 143, 4-{[2-(1-benzhydryl-2-methyl-1H-indol-3-yl)ethyl]sulfonyl}benzoic acid], for which the inhibition at 3 µM on cPLA2 (Conc 3 uM, read-out: % Inhibition) turned out to be 50%.

In the case of `O=C(O)c1ccc(OCCc2c(CO)n(C(c3ccccc3)c3ccccc3)c3ccc(Cl)cc23)cc1` [Example 151, 4-{2-[1-benzhydryl-5-chloro-2-(hydroxymethyl)-1H-indol-3-yl]ethoxy}benzoic acid], on cPLA2 (Conc 3.3 uM), the inhibition at 3.3 µM worked out at 50%.

On to `O=C(O)/C=C/COc1ccc(Cc2cn(C(c3ccccc3)c3ccccc3)c3cc(Cl)ccc23)cc1` [Example 122, (E)-4-{4-[(1-benzhydryl-6-chloro-1H-indol-3-yl)methyl]phenoxy}-2-butenoic acid], for which the inhibition at 1.25 µM on cPLA2 (CONCENTRATION 1.25 micromolar, read-out: PERCENT INHIBITION @) stood at 64%.

On to `O=C(O)COc1ccc(Cc2cn(C(c3ccccc3)c3ccccc3)c3cc(Cl)ccc23)c(Cl)c1` [Example 120, 2-{4-[(1-benzhydryl-6-chloro-1H-indol-3-yl)methyl]-3-chlorophenoxy}acetic acid], for which the inhibition at 1 µM on cPLA2 (CONCENTRATION 1 micromolar, read-out: PERCENT INHIBITION @) came out at 50%.

As to `O=C(O)CC(=O)Nc1ccc(Cc2cn(C(c3ccccc3)c3ccccc3)c3cc(Cl)ccc23)cc1` [Example 124, sodium 3-{4-[(1-benzhydryl-6-chloro-1H-indol-3-yl)methyl]anilino}-3-oxopropanoic acid], on cPLA2 (CONCENTRATION 1.3 micromolar, read-out: PERCENT INHIBITION @), the inhibition at 1.3 µM worked out at 50%.

`COc1cc(C(=O)NCC(=O)O)ccc1Cc1cn(C(c2ccccc2)c2ccccc2)c2cc(Cl)ccc12` [Example 138, 2-({4-[(1-benzhydryl-6-chloro-1H-indol-3-yl)methyl]-3-methoxybenzoyl}amino)acetic acid]: the inhibition at 0.4 µM at cPLA2 (CONCENTRATION 0.4 micromolar, read-out: PERCENT INHIBITION @) worked out at 50%.

In the case of `O=C(O)c1ccc(OCCc2c(COC/C=C/c3ccccc3)n(C(c3ccccc3)c3ccccc3)c3ccc(Cl)cc23)cc1` [Example 164, 4-{2-[1-benzhydryl-5-chloro-2-({[(E)-3-phenyl-2-propenyl]oxy}methyl)-1H -indol-3-yl)ethoxy]benzoic acid], on cPLA2 (Conc 3.5 uM, read-out: % Inhibition), the inhibition at 3.5 µM stood at 50%.
